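Compound exposure: 48 hours, 5 concentrations, 96-well plates. Abbreviation: GI50, concentration required for 50% inhibition of growth. TGI: total growth inhibition.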
Tests used:
Assay in all cases: NCI-60 cell line screen, 48 h
RXF 393 renal = tested on: RXF 393 renal
UACC-257 melanoma = tested on: UACC-257 melanoma
HCT-15 colon = tested on: HCT-15 colon
OVCAR-5 ovarian = tested on: OVCAR-5 ovarian
U251 CNS = tested on: U251 CNS
HT29 colon = tested on: HT29 colon
NCI/ADR-RES ovarian = tested on: NCI/ADR-RES ovarian
UACC-62 melanoma = tested on: UACC-62 melanoma
SK-MEL-2 melanoma = tested on: SK-MEL-2 melanoma
SNB-19 CNS = tested on: SNB-19 CNS
HL-60(TB) leukemia = tested on: HL-60(TB) leukemia
HOP-92 NSCLC = tested on: HOP-92 NSCLC

SMILES	TGI (RXF 393 renal)	TGI (UACC-257 melanoma)	TGI (HCT-15 colon)	TGI (OVCAR-5 ovarian)	TGI (U251 CNS)	TGI (HT29 colon)	TGI (NCI/ADR-RES ovarian)	TGI (UACC-62 melanoma)	TGI (SK-MEL-2 melanoma)	TGI (SNB-19 CNS)	TGI (HL-60(TB) leukemia)	TGI (HOP-92 NSCLC)	GI50 (SNB-19 CNS)	GI50 (UACC-257 melanoma)	GI50 (HCT-15 colon)	GI50 (OVCAR-5 ovarian)	GI50 (HT29 colon)	GI50 (HL-60(TB) leukemia)	GI50 (HOP-92 NSCLC)	GI50 (NCI/ADR-RES ovarian)
COC1=C(OC)C(=O)C(Cc2c(Cl)nc3sc(C)cn23)=C(C)C1=O	41.7 µM	22.8 µM	67.9 µM	35.9 µM	36 µM	36.3 µM	38.1 µM	25.6 µM	76.9 µM	41.3 µM	–	–	–	–	–	–	–	–	–	–
Nc1ncnc2nc[nH]c12	88 µM	> 250 µM	> 250 µM	> 250 µM	> 250 µM	> 250 µM	99.5 µM	> 250 µM	> 250 µM	> 146 µM	228 µM	> 250 µM	105 µM	–	–	–	–	–	–	–
O=C(Nc1ccc(Cl)cc1)c1cc2cc(N=Nc3ccccc3Cl)ccc2oc1=O	> 100 µM	68.2 µM	24.1 µM	91.3 µM	51 µM	29.6 µM	–	26.6 µM	47 µM	> 100 µM	10.3 µM	38.8 µM	–	–	–	–	–	–	–	–
O=C([O-])C[n+]1ccccc1	> 100 µM	> 100 µM	> 100 µM	> 100 µM	> 100 µM	> 100 µM	> 100 µM	> 100 µM	> 100 µM	> 100 µM	> 100 µM	> 100 µM	–	–	–	–	–	–	–	–
CCOc1ccc(NC(=O)C(=O)CC(=O)c2sc(NNC(C)=O)nc2C)cc1	> 100 µM	> 100 µM	> 100 µM	> 100 µM	> 100 µM	> 100 µM	–	> 100 µM	> 100 µM	> 100 µM	> 100 µM	> 100 µM	–	–	–	–	–	–	–	–
CC(CCN)(CCN)[N+](=O)[O-]	> 100 µM	> 100 µM	> 100 µM	> 100 µM	> 100 µM	> 100 µM	> 100 µM	> 100 µM	> 100 µM	> 100 µM	> 100 µM	> 100 µM	–	–	–	–	–	–	–	–
C[C@]12C=CC(=O)C=C1CC[C@@H]1[C@@H]2CC[C@]2(C)OC(=O)CC[C@@H]12	> 485 µM	> 500 µM	> 500 µM	> 500 µM	> 500 µM	> 500 µM	> 500 µM	500 µM	> 488 µM	> 500 µM	476 µM	500 µM	–	–	–	–	–	–	–	–
CCOC(=O)c1cnc2oc3ccc(O)cc3c2c1C	> 100 µM	> 100 µM	> 100 µM	> 100 µM	> 100 µM	> 100 µM	> 100 µM	> 100 µM	> 100 µM	> 100 µM	> 100 µM	> 100 µM	–	–	–	–	–	–	–	–
CCOC(=O)C1=C(C)OC2(O)C=CC(O)=C3C(=O)N(c4ccccc4)C(=O)C312 (configuration not stated)	47.7 µM	99.4 µM	> 100 µM	> 100 µM	> 100 µM	76.7 µM	> 100 µM	76.7 µM	68.4 µM	65.3 µM	> 100 µM	> 100 µM	–	–	–	–	–	–	–	–
COCCOC(=O)c1c(C)n([O-])c2cc(Cl)c(Cl)cc2[n+]1=O	> 100 µM	> 100 µM	22.3 µM	34.6 µM	> 100 µM	41.8 µM	27.4 µM	36.4 µM	72.7 µM	> 100 µM	32 µM	25.3 µM	–	–	–	–	–	–	–	–
O=C(O)c1cc([N+](=O)[O-])cc2c(=O)c3cnccc3[nH]c12	> 100 µM	–	> 100 µM	> 100 µM	> 100 µM	> 100 µM	> 100 µM	> 100 µM	> 100 µM	> 100 µM	> 100 µM	–	–	–	–	–	–	–	–	–
CC(C)=CCC/C(C)=C/CC/C(C)=C/CC/C(C)=C/C=C/C=C(\C)CC/C=C(\C)CC/C=C(\C)CCC=C(C)C	> 100 µM	> 100 µM	> 100 µM	> 100 µM	> 100 µM	> 100 µM	> 82.9 µM	> 100 µM	> 100 µM	> 100 µM	4.96 µM	> 75.5 µM	–	–	–	–	–	–	–	–
NN(CC(=O)O)CC(=O)O	–	> 100 µM	> 100 µM	> 100 µM	> 100 µM	> 100 µM	> 100 µM	> 100 µM	> 100 µM	> 100 µM	> 100 µM	–	–	–	–	–	–	–	–	–
CCCCCCCCCCCCCCCCCCOc1ccccc1CC(=O)OCC[N+]1(C)CCCCC1	–	7.91 µM	27.7 µM	7.49 µM	–	3.1 µM	46.6 µM	–	–	4.94 µM	4.36 µM	3.35 µM	2.05 µM	2.79 µM	4.65 µM	2.32 µM	1.61 µM	1.92 µM	1.32 µM	14.9 µM
COc1cc2c(c(O)c1OC)-c1c(cc(OC)c(OC)c1OC)CC(C)C(C)C2 (configuration not stated)	> 100 µM	> 100 µM	> 100 µM	> 100 µM	> 100 µM	> 100 µM	–	> 100 µM	> 100 µM	> 100 µM	55.2 µM	> 100 µM	–	–	–	–	–	–	–	–
CN1CCOC(c2ccc(Cl)cc2)O1 (configuration not stated)	> 100 µM	> 100 µM	> 100 µM	> 100 µM	> 100 µM	> 100 µM	> 100 µM	> 100 µM	> 100 µM	> 100 µM	–	> 100 µM	–	–	–	–	–	–	–	–
